# Experimental data published in ChEMBL document CHEMBL1124819, “1,9-Alkano-bridged 2,3,4,5-tetrahydro-1H-3-benzazepines with affinity for the alpha 2-adrenoceptor and the 5-HT1A receptor” (J Med Chem, 1990).
# Columns and labels:
# [1] = target: T1, 5-hydroxytryptamine receptor 1A (Rattus norvegicus, UniProt P19327); experiment: Binding affinity against 5-hydroxytryptamine 1A receptor in rat cerebral cortical membrane using [3H]-8-OH-DPAT as radioligand.; type: cell membranes
# T1 sequence (P19327 whole entry): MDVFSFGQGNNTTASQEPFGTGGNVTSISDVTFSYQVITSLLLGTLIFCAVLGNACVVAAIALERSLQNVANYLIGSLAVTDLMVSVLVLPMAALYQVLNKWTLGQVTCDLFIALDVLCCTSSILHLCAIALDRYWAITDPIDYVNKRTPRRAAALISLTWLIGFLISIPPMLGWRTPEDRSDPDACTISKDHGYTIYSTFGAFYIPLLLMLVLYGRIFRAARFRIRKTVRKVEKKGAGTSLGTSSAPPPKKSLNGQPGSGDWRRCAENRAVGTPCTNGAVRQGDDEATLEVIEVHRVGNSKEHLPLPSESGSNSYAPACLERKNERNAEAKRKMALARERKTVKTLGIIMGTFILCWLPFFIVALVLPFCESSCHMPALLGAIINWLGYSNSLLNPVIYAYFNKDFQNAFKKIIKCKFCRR
# [2] = target: T2, Adrenergic receptor alpha-2 (Rattus norvegicus, UniProt P22086+P19328+P22909); experiment: Binding affinity against alpha-2 adrenergic receptor in rat cerebral cortical membrane using [3H]yohimbine as radioligand.; type: cell membranes
# T2 sequence (P22086 whole entry): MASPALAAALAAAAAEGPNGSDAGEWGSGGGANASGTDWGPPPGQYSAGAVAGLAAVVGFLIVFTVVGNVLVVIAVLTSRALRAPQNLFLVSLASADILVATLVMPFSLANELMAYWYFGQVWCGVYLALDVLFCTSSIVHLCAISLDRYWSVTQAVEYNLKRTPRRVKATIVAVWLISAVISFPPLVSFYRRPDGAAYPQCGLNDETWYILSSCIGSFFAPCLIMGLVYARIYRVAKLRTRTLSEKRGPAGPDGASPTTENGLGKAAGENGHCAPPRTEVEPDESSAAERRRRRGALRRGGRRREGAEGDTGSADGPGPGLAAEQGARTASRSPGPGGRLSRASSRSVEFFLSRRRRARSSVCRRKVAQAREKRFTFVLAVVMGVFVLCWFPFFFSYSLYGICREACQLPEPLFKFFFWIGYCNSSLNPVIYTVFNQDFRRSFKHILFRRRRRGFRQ
# T2 sequence (P19328 whole entry): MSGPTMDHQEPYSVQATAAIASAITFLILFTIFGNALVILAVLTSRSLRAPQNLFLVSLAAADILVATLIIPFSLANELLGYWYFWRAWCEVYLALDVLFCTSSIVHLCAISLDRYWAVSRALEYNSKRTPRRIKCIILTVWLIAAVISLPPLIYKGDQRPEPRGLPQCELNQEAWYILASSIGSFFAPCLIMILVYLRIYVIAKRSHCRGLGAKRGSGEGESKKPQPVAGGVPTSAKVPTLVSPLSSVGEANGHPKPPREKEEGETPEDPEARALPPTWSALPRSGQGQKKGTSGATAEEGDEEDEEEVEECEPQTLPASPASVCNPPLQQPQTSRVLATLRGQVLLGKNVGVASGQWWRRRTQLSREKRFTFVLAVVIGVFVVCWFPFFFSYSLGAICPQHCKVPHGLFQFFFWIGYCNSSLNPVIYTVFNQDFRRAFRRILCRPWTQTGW
# T2 sequence (P22909 whole entry): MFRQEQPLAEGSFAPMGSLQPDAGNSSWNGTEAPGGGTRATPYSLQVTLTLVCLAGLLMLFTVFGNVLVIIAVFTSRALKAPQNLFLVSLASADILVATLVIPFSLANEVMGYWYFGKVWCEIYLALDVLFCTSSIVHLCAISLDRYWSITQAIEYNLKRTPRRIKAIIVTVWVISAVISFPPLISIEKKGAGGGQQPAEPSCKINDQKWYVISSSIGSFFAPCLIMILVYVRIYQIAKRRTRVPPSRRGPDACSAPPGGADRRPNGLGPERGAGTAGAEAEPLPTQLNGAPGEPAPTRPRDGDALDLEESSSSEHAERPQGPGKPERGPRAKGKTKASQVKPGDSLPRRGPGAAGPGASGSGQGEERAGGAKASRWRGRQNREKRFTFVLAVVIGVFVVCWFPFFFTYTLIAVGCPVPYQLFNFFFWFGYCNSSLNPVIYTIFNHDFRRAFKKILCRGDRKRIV
SMILES,Ki [1],Log Ki [2]
Br.CN1CCc2cccc3c2C(CC3)C1 (stereo not given),15.8 nM,-6.6
Br.CN1CCc2c(Cl)ccc3c2C(CC3)C1 (stereo not given),25.1 nM,-8.1
Br.COc1ccc2c3c1CCN(C)CC3CC2 (stereo not given),100 nM,-6.9
Br.CN1CCc2c(Cl)ccc3[nH]cc(c23)C1,31.6 nM,-6.8
Br.CN1CCc2ccc(Cl)c3c2C(CCCC3)C1 (stereo not given),5010 nM,-6.2
Cl.O=C1CC2(CCCC2)CC(=O)N1CCCCN1CCc2cccc3c2C(CCC3)C1 (stereo not given),39.8 nM,-5.9
Cl.c1ccc(CCN2CCc3cccc4c3C(CCC4)C2)cc1 (stereo not given),794 nM,-6.2
C=CCN1CCc2c(OC)ccc3c2C(CCC3)C1.Cl (stereo not given),12.6 nM,-6
CCCN1CCc2cccc3c2C(CCC3)C1.Cl (stereo not given),50.1 nM,-6
CCN1CCc2cccc3c2C(CCC3)C1.Cl (stereo not given),50.1 nM,-6.2
C=CCOc1ccc2c3c1CCN(C)CC3CCC2.Cl (stereo not given),631 nM,-7.5
CN1CCc2c(O)ccc3c2C(CCC3)C1.Cl (stereo not given),316 nM,-6.2
COc1ccc2c3c1CCN(C)CC3CCC2.Cl (stereo not given),25.1 nM,-6.8
COc1ccc2c3c1CN(C)CC3CCC2.Cl (stereo not given),200 nM,-6.8
COc1ccc2c3c1CN(C)CCC3CCC2.Cl (stereo not given),6310 nM,-5.9
CN1CCc2c[nH]c3cccc(c23)C1.Cl,1260 nM,-6
COc1ccc2c3c1CCN(C)C3CCC2 (stereo not given),3160 nM,
CN1CCc2cccc3c2C(CCC3)C1.Cl (stereo not given),50.1 nM,-5.9
CN1CCc2cccc3c2[C@H](CCC3)C1.Cl,31.6 nM,-5.6
O=C1CC2(CCCC2)CC(=O)N1CCCCN1CCc2ccccc2CC1,25.1 nM,

SMILES,Ki [1],Log Ki [2]
CN1CCc2cccc3c2C(CCCC3)C1.Cl (stereo not given),398 nM,-5.9
C=CCN1CCc2cccc3c2C(CCC3)C1.Cl (stereo not given),20 nM,-6.1
CN1CCc2cccc3c2[C@@H](CCC3)C1.Cl,63.1 nM,-6.4
Cl.c1cc2c3c(c1)CCNCC3CCC2 (stereo not given),200 nM,-5.9
CN1CCc2cccc(Cl)c2CC1,100 nM,-8.1
Br.CN1CCc2cccc3[nH]cc(c23)C1,100 nM,-6.3
O=C1CC2(CCCC2)CC(=O)N1CCCCN1CCc2cccc(Cl)c2CC1,5.01 nM,
CN1CCc2ccc(Cl)c3c2C(CC3)C1 (stereo not given),25.1 nM,-6.8
C=CCN1CCc2c(Cl)ccc3c2C(CCC3)C1 (stereo not given),7.94 nM,-6.1
CN1CCc2c(Cl)ccc3c2C(CCCC3)C1 (stereo not given),79.4 nM,-6.5
CN1CCc2ccc(Cl)c3c2[C@@H](CCC3)C1,126 nM,-6.4
CN1CCc2c(Cl)ccc3c2[C@@H](CCC3)C1,20 nM,-7
O=C1CC2(CCCC2)CC(=O)N1CCCCN1CCc2c(Cl)ccc3c2C(CCC3)C1 (stereo not given),7.94 nM,-5.5
CN1CCc2c(Cl)ccc3c2C(CCC3)C1 (stereo not given),10 nM,-6.9
CN1CCc2c(Cl)ccc3c2[C@H](CCC3)C1,6.31 nM,-6.6
CCN1CCc2c(Cl)ccc3c2C(CCC3)C1 (stereo not given),15.8 nM,-6.5
CN1CCc2ccc(Cl)c3c2[C@H](CCC3)C1,50.1 nM,-5.8
CCCN1CCc2c(Cl)ccc3c2C(CCC3)C1 (stereo not given),31.6 nM,-6.4
CN1CCc2ccc(Cl)c3c2C(CCC3)C1 (stereo not given),79.4 nM,-6
